Tests used:
hTLR8 = biological target: T1, hTLR8 (Homo sapiens, UniProt Q9NR97); experiment: Activation activity test of hTLR8 (HEK-Blue hTLR8 cells, QUANTI-Blue OD650); type: cell-based; details: HEK-Blue hTLR8 cells, 24 hours incubation; read-out: TLR8 (EC50)
T1 construct: host or cells: HEK-Blue hTLR8 (HEK293-derived reporter line)
T1 sequence (Q9NR97 27-1041): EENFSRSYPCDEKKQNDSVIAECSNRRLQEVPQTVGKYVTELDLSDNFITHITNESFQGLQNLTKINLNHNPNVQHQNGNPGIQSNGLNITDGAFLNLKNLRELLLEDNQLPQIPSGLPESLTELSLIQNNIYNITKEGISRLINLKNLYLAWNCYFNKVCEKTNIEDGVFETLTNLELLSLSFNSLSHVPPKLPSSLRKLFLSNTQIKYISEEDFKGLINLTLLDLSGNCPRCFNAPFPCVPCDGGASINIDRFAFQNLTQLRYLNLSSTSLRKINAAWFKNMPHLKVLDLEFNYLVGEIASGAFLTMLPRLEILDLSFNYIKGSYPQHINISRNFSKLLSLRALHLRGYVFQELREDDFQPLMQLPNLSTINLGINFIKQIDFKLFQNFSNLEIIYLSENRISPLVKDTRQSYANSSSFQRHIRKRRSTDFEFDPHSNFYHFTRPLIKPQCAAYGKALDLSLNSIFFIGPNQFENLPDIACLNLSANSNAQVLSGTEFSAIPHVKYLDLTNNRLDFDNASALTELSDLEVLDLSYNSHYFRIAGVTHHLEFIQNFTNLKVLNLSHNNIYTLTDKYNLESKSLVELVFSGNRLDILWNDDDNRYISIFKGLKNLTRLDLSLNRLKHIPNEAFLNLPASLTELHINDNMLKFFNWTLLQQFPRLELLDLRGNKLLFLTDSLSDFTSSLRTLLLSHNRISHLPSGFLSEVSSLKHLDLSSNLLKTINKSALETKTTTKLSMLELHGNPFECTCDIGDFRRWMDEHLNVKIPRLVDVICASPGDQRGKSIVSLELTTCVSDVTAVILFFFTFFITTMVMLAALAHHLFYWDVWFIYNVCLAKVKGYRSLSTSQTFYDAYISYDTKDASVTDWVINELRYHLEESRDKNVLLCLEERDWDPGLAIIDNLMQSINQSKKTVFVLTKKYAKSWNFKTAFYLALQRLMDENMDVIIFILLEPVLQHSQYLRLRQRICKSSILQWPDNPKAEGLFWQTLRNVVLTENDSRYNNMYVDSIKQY
Protocol: (§1) Effect Example 1: Activation Activity Test of hTLR7 and hTLR8
(§2) Cell lines: HEK-Blue™ hTLR7 and HEK-Blue™ hTLR8 (InvivoGen Co.)
(§3) Primary reagents: QUANTI-Blue™ (InvivoGen) and ATPlite 1 Step (PerkinElmer)
(§4) Primary instruments: Automatic Liquid Handling Workstation (Labcyte, Model: Echo), Cell Counter (Countstar, IC1000) and Multifunctional Enzyme Marker (Molecular Device, Flexstation III).
(§5) 2.1 The tested compounds were formulated into a 60 mM concentrated stock solution in DMSO and stored in a nitrogen cabinet.
(§6) 2.3 The T150 cultured cells were taken out from the CO2 incubator and the cell culture supernatant was discarded. The cells were washed with PBS once, followed by addition of about 10 mL of the culture solution. The cells were dissociated by patting the cell culture flask, and gently blown to even by a pipette.
(§7) The cells were counted, and the cell suspension was adjusted to 200,000 cells/mL by the culture solution. Thereafter, 200 μL of diluted cells was added to each well in a 96-well plate containing the compound (40,000 cells/well).
(§8) 2.4 The compounds and cells were incubated in a 5% CO2 incubator at 37° C. for 24 hours.
(§9) 2.5 Compound activity assay: 20 μl of the cell supernatant of each well after induction was added to a cell culture plate containing 180 μL of reagent QUANTI-Blue™, and incubated at 37° C. for 1.5 hours. Thereafter, the optical density absorption (OD650) of each well at 650 nm was measured using a Multifunctional Enzyme Marker: Flexstation III.
(§10) 2.6 Compound Activity: OD650 values were analyzed using GraphPad Prism software and the dose-response curves for the compound were fitted to calculate the EC50 values of the compound.

hTLR7 = biological target: T2, hTLR7 (Homo sapiens, UniProt Q9NYK1); experiment: Activation activity test of hTLR7 (HEK-Blue hTLR7 cells, QUANTI-Blue OD650); type: cell-based; details: 24 hours incubation, read-out: TLR7 (EC50)
T2 construct: host or cells: HEK-Blue hTLR7 (HEK293-derived reporter line)
T2 sequence (Q9NYK1 27-1049): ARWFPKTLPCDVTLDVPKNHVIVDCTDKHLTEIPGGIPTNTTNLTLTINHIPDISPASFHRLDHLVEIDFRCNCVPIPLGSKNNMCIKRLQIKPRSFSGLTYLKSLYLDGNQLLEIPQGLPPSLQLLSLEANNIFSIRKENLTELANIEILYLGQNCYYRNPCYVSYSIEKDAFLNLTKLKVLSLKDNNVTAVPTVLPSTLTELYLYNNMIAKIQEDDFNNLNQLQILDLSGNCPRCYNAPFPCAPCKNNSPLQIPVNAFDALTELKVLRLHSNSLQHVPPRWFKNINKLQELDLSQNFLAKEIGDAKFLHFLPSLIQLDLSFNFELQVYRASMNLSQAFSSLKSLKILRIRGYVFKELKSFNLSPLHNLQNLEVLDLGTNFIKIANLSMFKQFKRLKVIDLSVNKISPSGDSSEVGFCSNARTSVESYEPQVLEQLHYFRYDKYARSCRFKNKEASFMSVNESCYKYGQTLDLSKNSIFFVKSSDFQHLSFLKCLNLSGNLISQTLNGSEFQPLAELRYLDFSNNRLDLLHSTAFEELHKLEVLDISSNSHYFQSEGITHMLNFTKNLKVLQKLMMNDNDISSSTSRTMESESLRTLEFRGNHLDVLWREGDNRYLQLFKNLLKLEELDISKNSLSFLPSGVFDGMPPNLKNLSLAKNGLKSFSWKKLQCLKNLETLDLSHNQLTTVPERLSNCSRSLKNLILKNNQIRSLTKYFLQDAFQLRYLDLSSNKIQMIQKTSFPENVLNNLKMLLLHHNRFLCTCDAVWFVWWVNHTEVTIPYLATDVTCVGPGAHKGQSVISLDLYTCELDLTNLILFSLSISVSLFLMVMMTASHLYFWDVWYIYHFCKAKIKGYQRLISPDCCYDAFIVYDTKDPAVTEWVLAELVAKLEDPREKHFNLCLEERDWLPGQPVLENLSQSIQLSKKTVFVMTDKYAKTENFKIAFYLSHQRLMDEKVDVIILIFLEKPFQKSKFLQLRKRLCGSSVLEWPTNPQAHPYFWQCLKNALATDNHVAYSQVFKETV
Protocol: as §1, §2, §3, §4, §5, §6, §7, §8, §9, §10

Structure (SMILES) | EC50 (hTLR8) [µM] | EC50 (hTLR7) [µM]
COCCOc1ncc2[nH]c(=O)n(Cc3cccc(CN4CCC[C@H]4C(=O)OC)c3)c2n1 [Example 24, methyl (3-((2-(2-methoxyethoxy)-8-oxo-7,8-dihydro-9H-purin-9-yl)methyl)benzyl)-L-pyrrolidine-2-carboxylate] | > 100 | > 100
COCCOc1ncc2[nH]c(=O)n(Cc3ccc(CN4CCCC4)c(F)c3)c2n1 [Example 62, 2-(2-methoxyethoxy)-9-(3-fluoro-4-(pyrrolidin-1-ylmethyl)benzyl)-7,9-dihydro-8H-purin-8-one] | > 100 | 1 to 10
O=c1[nH]c2cnc(OCCC3CC3)nc2n1Cc1cccc(CN2CCCC2)c1 [Example 29, 2-(2-cyclopropylethoxy)-9-(3-(pyrrolidin-1-ylmethyl)benzyl)-7,9-dihydro-8H-purin-8-one] | > 100 | > 100
COCCOc1ncc2[nH]c(=O)n(Cc3ccc(C(C)N4CCCCCC4)cc3)c2n1 (centres unmarked) [Example 16, 2-(2-methoxyethoxy)-9-(4-(1-(azacycloheptane-1-yl)ethyl)benzyl)-7,9-dihydro-8H-purin-8-one] | > 100 | 0.001 to 1
O=c1[nH]c2cnc(OCCO)nc2n1Cc1ccc(CN2CCCC2)cc1 [Example 38, 2-(2-hydroxyethoxy)-9-(4-(pyrrolidin-1-ylmethyl)benzyl)-7,9-dihydro-8H-purin-8-one] | > 100 | 10 to 100
COCCOc1ncc2[nH]c(=O)n(Cc3ccc(CN4CCC(F)(F)C4)cc3)c2n1 [Example 54, 9-(4-((3,3-difluoropyrrolidin-1-yl)methyl)benzyl)-2-(2-methoxyethoxy)-7,9-dihydro-8H-purin-8-one] | > 100 | 10 to 100
COCCCCOc1ncc2[nH]c(=O)n(Cc3ccc(CN4CCCC4)cc3)c2n1 [Example 47, 9-(4-(pyrrolidin-1-ylmethyl)benzyl)-2-(4-methoxybutoxy)-7,9-dihydro-8H-purin-8-one] | > 100 | 1 to 10
COCCOc1ncc2[nH]c(=O)n(Cc3ccc(CN4CCC[C@@H]4C(=O)OC)cc3)c2n1 [Example 7, methyl (4-((2-(2-methoxyethoxy)-8-oxo-7,8-dihydro-9H-purin-9-yl)methyl)benzyl)-D-pyrrolidine-2-carboxylate] | > 100 | 10 to 100
COC(C)CCOc1ncc2[nH]c(=O)n(Cc3ccc(CN4CCCC4)cc3)c2n1 (centres unmarked) [Example 49, 9-(4-(pyrrolidin-1-ylmethyl)benzyl)-2-(3-methoxybutoxy)-7,9-dihydro-8H-purin-8-one] | > 100 | 0.001 to 1
COCCOc1ncc2[nH]c(=O)n(Cc3ccc(CN4CCC4)cc3)c2n1 [Example 2, 2-(2-methoxyethoxy)-9-(4-(azetidin-1-ylmethyl)benzyl)-7,9-dihydro-8H-purin-8-one] | > 100 | 10 to 100
CCOCCOc1ncc2[nH]c(=O)n(Cc3ccc(CN4CCCC4)cc3)c2n1 [Example 37, 2-(2-ethoxyethoxy)-9-(4-(pyrrolidin-1-ylmethyl)benzyl)-7,9-dihydro-8H-purin-8-one] | > 100 | 1 to 10

Other lines, results leading:

EC50 (hTLR8) [µM] | EC50 (hTLR7) [µM] | Structure (SMILES)
> 100 | 1 to 10 | COCCOc1ncc2[nH]c(=O)n(Cc3ccc(CN4CCC5(CC4)COC5)cc3)c2n1 [Example 11, 9-(4-((2-oxa-7-azaspiro[3.5]nonan-7-yl)methyl)benzyl)-2-(2-methoxyethoxy)-7,9-dihydro-8H-purin-8-one]
> 100 | 10 to 100 | COCCOc1ncc2nc(N)n(Cc3ccc(CN4CCCC4)cc3)c2n1 [Example 61, 2-(2-methoxyethoxy)-9-(4-(pyrrolidin-1-ylmethyl)benzyl)-7,9-dihydro-8H-purin-8-amine]
> 100 | 1 to 10 | COCCOc1ncc2[nH]c(=O)n(Cc3cccc(CN4CCCC4)c3)c2n1 [Example 18]
> 100 | 10 to 100 | COCCOc1ncc2[nH]c(=O)n(Cc3cccc(C(C)N4CCCC4)c3)c2n1 (centres unmarked) [Example 26, 2-(2-methoxyethoxy)-9-(3-(1-(pyrrolidin-1-yl)ethyl)benzyl)-7,9-dihydro-8H-purin-8-one]
> 100 | > 100 | CCCCSc1ncc2[nH]c(=O)n(Cc3cccc(CN4CCCC4)c3)c2n1 [Example 33, 2-butylthio-9-(3-(pyrrolidin-1-ylmethyl)benzyl)-7,9-dihydro-8H-purin-8-one]
> 100 | 0.001 to 1 | O=c1[nH]c2cnc(OCCOCC(F)(F)F)nc2n1Cc1ccc(CN2CCCC2)cc1 [Example 48, 9-(4-(pyrrolidin-1-ylmethyl)benzyl)-2-(2-(2,2,2-trifluoroethoxy)ethoxy)-7,9-dihydro-8H-purin-8-one]
> 100 | 0.001 to 1 | O=c1[nH]c2cnc(OCCOC(F)(F)F)nc2n1Cc1ccc(CN2CC=CC2)cc1 [Example 55]
> 100 | > 100 | COCCOc1ccc2[nH]c(=O)n(Cc3ccc(CN4CCCC4)cc3)c2n1 [Example 40, 5-(2-methoxyethoxy)-3-(4-(pyrrolidin-1-ylmethyl)benzyl)-1,3-dihydro-2H-imidazole[4,5-b]pyridin-2-one]
> 100 | > 100 | COCCOc1ncc2nc(C)n(Cc3ccc(CN4CCCC4)cc3)c2n1 [Example 59, 2-(2-methoxyethoxy)-8-methyl-9-(4-(pyrrolidin-1-ylmethyl)benzyl)-9H-purine]
> 100 | > 100 | CCCCS(=O)(=O)c1ncc2[nH]c(=O)n(Cc3cccc(CN4CCCC4)c3)c2n1 [Example 35, 2-butylsulfonyl-9-(3-(pyrrolidin-1-ylmethyl)benzyl)-7,9-dihydro-8H-purin-8-one]
> 100 | 10 to 100 | COCCOc1ncc2[nH]c(=O)n(Cc3cccc(CN4CCN(C)CC4)c3)c2n1 [Example 25, 2-(2-methoxyethoxy)-9-(3-((4-methylpiperazin-1-yl)methyl)benzyl)-7,9-dihydro-8H-purin-8-one]

— patent publication US11084818B2 (HEPO PHARMACEUTICAL CO., LTD., priority 2016, dated 2021)
